Source: patent US4424358A, “β-3-Amino nor-tropane compounds” (Delalande S.A., priority 1979, dated 1984)
Like-named read-outs stand apart in the source and are kept apart here.

Assays:
[1] = acute toxicity by intraperitoneal administration; settings: mouse, in vivo, ip; mice, i.p., estimated lethal dose (method of Miller); read-out: Acute toxicity LD 50
Source text: Acute toxicity was studied on mice by intraperitoneal administration, and the estimated lethal doses in accordance with the method described by MILLER and THINTER Proc. Soc. Exper.

[2] = tested on: apomorphine straightening; assay: antagonism to apomorphine straightening (neuroleptic activity); type: in vivo, mice; settings: Mus musculus, ip, read-out: Apomorphine straightening ED 50

COc1c(C(=O)N[C@@H]2C[C@H]3CC[C@@H](C2)N3Cc2ccccc2)cc(Br)c(N)c1Br [Compound 74]
LD50 [1]: 250 mg/kg | ED50 [2]: 0.035 mg/kg

COc1cc(N)c(Br)cc1C(=O)N[C@@H]1C[C@H]2CC[C@@H](C1)N2Cc1cccc(Br)c1 [Compound 27]
LD50 [1]: > 400 mg/kg | ED50 [2]: 0.034 mg/kg

COc1cc(N)c(Br)cc1C(=O)N[C@@H]1C[C@H]2CC[C@@H](C1)N2Cc1cccc(Cl)c1 [Compound 25]
LD50 [1]: 100 mg/kg | ED50 [2]: 0.03 mg/kg

COc1cc(N)c(Br)cc1C(=O)N[C@@H]1C[C@H]2CC[C@@H](C1)N2Cc1ccc(F)cc1 [Compound 19, β-3-[(4-amino 5-bromo 2-methoxy)benzoyl]amino N-parafluorobenzyl nor-tropane, chlorhydrate]
LD50 [1]: 90 mg/kg | ED50 [2]: 0.01 mg/kg

COc1cc(N)c(Br)cc1C(=O)N[C@@H]1C[C@H]2CC[C@@H](C1)N2CC1CCCCC1 [Compound 35]
LD50 [1]: 80 mg/kg | ED50 [2]: 0.07 mg/kg

COc1cc(N)c(Cl)cc1C(=O)N[C@@H]1C[C@H]2CC[C@@H](C1)N2Cc1ccsc1 [Compound 72]
LD50 [1]: 110 mg/kg | ED50 [2]: 0.04 mg/kg

COc1cc(NC(C)=O)c(Cl)cc1C(=O)N[C@@H]1C[C@H]2CC[C@@H](C1)N2Cc1ccccc1 [Compound 42]
LD50 [1]: 61 mg/kg | ED50 [2]: 0.05 mg/kg

COc1ccc(C(=O)N[C@@H]2C[C@H]3CC[C@@H](C2)N3Cc2ccccc2)c(OC)c1 [Compound 68]
LD50 [1]: 47 mg/kg | ED50 [2]: 0.02 mg/kg

CCc1ccc(CN2[C@@H]3CC[C@H]2C[C@H](NC(=O)c2cc(Br)c(N)cc2OC)C3)cc1 [Compound 30]
LD50 [1]: 230 mg/kg | ED50 [2]: 0.3 mg/kg

COc1cccc(C(=O)N[C@@H]2C[C@H]3CC[C@@H](C2)N3Cc2ccccc2)c1OC [Compound 64]
LD50 [1]: 83 mg/kg | ED50 [2]: 0.008 mg/kg

COc1nc(N)ncc1C(=O)N[C@@H]1C[C@H]2CC[C@@H](C1)N2Cc1ccc(Cl)cc1 [Compound 8, β-3-[5-(2-amino 4-methoxypyrimidinyl)carbonyl]amino N-parachlorobenzyl nor-tropane]
LD50 [1]: 220 mg/kg | ED50 [2]: 0.035 mg/kg

COc1ccc(C(=O)N[C@@H]2C[C@H]3CC[C@@H](C2)N3Cc2ccccc2)c(OC)c1OC [Compound 61]
LD50 [1]: 80 mg/kg | ED50 [2]: 0.02 mg/kg

COc1nc(N)ncc1C(=O)N[C@@H]1C[C@H]2CC[C@@H](C1)N2Cc1ccc(Br)cc1 [Compound 37]
LD50 [1]: 170 mg/kg | ED50 [2]: 0.16 mg/kg

COc1cc(N)c(Br)cc1C(=O)N[C@@H]1C[C@H]2CC[C@@H](C1)N2Cc1ccc(C(F)(F)F)cc1 [Compound 33]
LD50 [1]: > 400 mg/kg | ED50 [2]: 0.19 mg/kg

COc1cc(N)c(Br)cc1C(=O)N[C@@H]1C[C@H]2CC[C@@H](C1)N2Cc1ccsc1 [Compound 32]
LD50 [1]: 140 mg/kg | ED50 [2]: 0.05 mg/kg

COc1cc(N)ccc1C(=O)N[C@@H]1C[C@H]2CC[C@@H](C1)N2Cc1ccccc1 [Compound 67]
LD50 [1]: 100 mg/kg | ED50 [2]: 0.038 mg/kg

COc1ccc(CN2[C@@H]3CC[C@H]2C[C@H](NC(=O)c2cnc(N)nc2OC)C3)cc1 [Compound 9]
LD50 [1]: 240 mg/kg | ED50 [2]: 0.01 mg/kg

COc1ccccc1C(=O)N[C@@H]1C[C@H]2CC[C@@H](C1)N2Cc1ccccc1 [Compound 62]
LD50 [1]: 60 mg/kg | ED50 [2]: 0.04 mg/kg

COc1cc(NC(=O)C(F)(F)F)c(Cl)cc1C(=O)N[C@@H]1C[C@H]2CC[C@@H](C1)N2Cc1ccccc1 [Compound 43]
LD50 [1]: 120 mg/kg | ED50 [2]: 0.03 mg/kg

COc1cc(NC(=O)C(F)(F)F)c(Br)cc1C(=O)N[C@@H]1C[C@H]2CC[C@@H](C1)N2Cc1ccccc1 [Compound 41]
LD50 [1]: 225 mg/kg | ED50 [2]: 0.03 mg/kg

COc1cc(N)c(Br)cc1C(=O)N[C@@H]1C[C@H]2CC[C@@H](C1)N2Cc1cccc(C)c1 [Compound 24]
LD50 [1]: 160 mg/kg | ED50 [2]: 0.05 mg/kg

COc1cc(N)c(Br)cc1C(=O)N[C@@H]1C[C@H]2CC[C@@H](C1)N2Cc1cccc(F)c1 [Compound 26]
LD50 [1]: 140 mg/kg | ED50 [2]: 0.011 mg/kg

COc1cc(N)c(Cl)cc1C(=O)N[C@@H]1C[C@H]2CC[C@@H](C1)N2Cc1cccs1 [Compound 73]
LD50 [1]: 170 mg/kg | ED50 [2]: 0.02 mg/kg

COc1cc(OC)cc(C(=O)N[C@@H]2C[C@H]3CC[C@@H](C2)N3Cc2ccccc2)c1 [Compound 83]
LD50 [1]: 140 mg/kg | ED50 [2]: 0.031 mg/kg

COc1cc(N)c(Br)cc1C(=O)N[C@@H]1C[C@H]2CC[C@@H](C1)N2Cc1ccc(C)cc1 [Compound 23]
LD50 [1]: > 400 mg/kg | ED50 [2]: 0.07 mg/kg

CCOc1cc(N)c(Br)cc1C(=O)N[C@@H]1C[C@H]2CC[C@@H](C1)N2Cc1ccccc1 [Compound 75]
LD50 [1]: > 400 mg/kg | ED50 [2]: 0.021 mg/kg

COc1cc(N)c(Cl)cc1C(=O)N[C@@H]1C[C@H]2CC[C@@H](C1)N2Cc1ccco1 [Compound 71]
LD50 [1]: 120 mg/kg | ED50 [2]: 0.11 mg/kg

COc1ccc(O)cc1C(=O)N[C@@H]1C[C@H]2CC[C@@H](C1)N2Cc1ccccc1 [Compound 51]
LD50 [1]: 140 mg/kg | ED50 [2]: 0.03 mg/kg

COc1cc(NC(C)=O)c(Br)cc1C(=O)N[C@@H]1C[C@H]2CC[C@@H](C1)N2Cc1ccccc1 [Compound 40]
LD50 [1]: 130 mg/kg | ED50 [2]: 0.05 mg/kg

COc1ccc(F)cc1C(=O)N[C@@H]1C[C@H]2CC[C@@H](C1)N2Cc1ccccc1 [Compound 49]
LD50 [1]: 120 mg/kg | ED50 [2]: 0.08 mg/kg

CCN1CCCC1CNC(=O)c1cc(S(N)(=O)=O)ccc1OC (stereo not drawn) [SULPIRIDE, reference compound]
ED50 ([2]; mice, i.p.): 37 mg/kg

COc1cc(N)c(Br)cc1C(=O)N[C@@H]1C[C@H]2CC[C@@H](C1)N2Cc1cccs1 [Compound 29]
LD50 [1]: 180 mg/kg | ED50 [2]: 0.012 mg/kg

COc1cc(N)c(Br)cc1C(=O)N[C@@H]1C[C@H]2CC[C@@H](C1)N2Cc1ccc(Cl)c(Cl)c1 [Compound 28]
LD50 [1]: > 400 mg/kg | ED50 [2]: 0.12 mg/kg

COc1cc(N)c(Br)cc1C(=O)N[C@@H]1C[C@H]2CC[C@@H](C1)N2Cc1ccc(Br)cc1 [Compound 20]
LD50 [1]: > 400 mg/kg | ED50 [2]: 0.034 mg/kg

COc1ccc([N+](=O)[O-])cc1C(=O)N[C@@H]1C[C@H]2CC[C@@H](C1)N2Cc1ccccc1 [Compound 48]
LD50 [1]: 310 mg/kg | ED50 [2]: 0.21 mg/kg

COc1cc(N)c(Br)cc1C(=O)N[C@@H]1C[C@H]2CC[C@@H](C1)N2Cc1ccccc1 [Compound 16]
LD50 [1]: 240 mg/kg | ED50 [2]: 0.01 mg/kg

COc1cc(N)c(Br)cc1C(=O)N[C@@H]1C[C@H]2CC[C@@H](C1)N2Cc1ccc(Cl)cc1 [Compound 22]
LD50 [1]: 140 mg/kg | ED50 [2]: 0.021 mg/kg

COc1nc(N)ncc1C(=O)N[C@@H]1C[C@H]2CC[C@@H](C1)N2Cc1ccc(C)cc1 [Compound 10]
LD50 [1]: 325 mg/kg | ED50 [2]: 0.035 mg/kg

COc1cc(OC)c(C(=O)N[C@@H]2C[C@H]3CC[C@@H](C2)N3Cc2ccccc2)cc1OC [Compound 60]
LD50 [1]: 75 mg/kg | ED50 [2]: 0.027 mg/kg

CCOc1nc(N)ncc1C(=O)N[C@@H]1C[C@H]2CC[C@@H](C1)N2Cc1ccccc1 [Compound 3]
LD50 [1]: 300 mg/kg | ED50 [2]: 0.04 mg/kg

COc1cc(N)c(Br)cc1C(=O)N[C@@H]1C[C@H]2CC[C@@H](C1)N2Cc1cccc(C(F)(F)F)c1 [Compound 21]
LD50 [1]: 85 mg/kg | ED50 [2]: 0.07 mg/kg
